Test system: lactating Holstein milk cows
Assay: Crossover feeding test of 5-ALA-supplemented total mixed ration on milk yield and milk composition of lactating cows
Type: in vivo
Description: Effects of ALAs on the milk composition of a lactating cow was studied. Six lactating Holstein milk cows (average body weight 698±18 kg, average milk production 24.1±1.6 kg/d, average days-in-milk (DIM) 209±34 days, and average number of lactations 2.9±0.4) were placed in a free stable. After a 7-day grace period, 6 cows were randomly assigned to section A and section B (each group n=3). Section A had, after a grace period, an ALA administration period of 14 days (ALA Consumption Group A), with an adjustment period of 7 days interposed, followed by an ALA non-administration period of 14 days (Control Group A), whereas Section B had, after a grace period, an ALA non-administration period of 14 days (Control Group B), with an adjustment period of 7 days interposed, followed by an ALA administration period of 14 days (ALA Consumption Group B), whereby the test was carried out by the crossover method. A total mixed ration (TMR) (see Table 2) which had been used was fed during the above grace period, adjustment period and ALA non-administration period, and a feed to which 10 mg of 5-ALA was added per kg of the total mixed ration (TMR) was fed during the ALA administration period.
5-ALA was provided by neopharma Japan Co., Ltd. Each feed and water were available at any time but feed consumption of each group on a dry base was 23.4 kg/day per cow in the control groups and 23.6 kg/day per cow in the ALA groups. Thus, the daily consumption of 5-ALA in the ALA groups was 0.329.6 mg to 0.347.1 mg/kg b.w./day. Each of the milk cows was milked at 09:00 and 17:00 and allowed to consume each feed at any time after milking.
Amounts of Milking from each cow were automatically recorded everyday by an auto milk recorder (manufactured by ORION MACHINERY CO., LTD.). Additionally, for each group of Section A and Section B, during the last 2 days in the ALA administration period of 14 days and the non-administration period of 14 days, 50 to 100 mL of milk was collected twice a day from cows of each period to use as milk samples for data analysis. The milk samples were preserved at −30° C. until the milk composition and the like were analyzed.
Using the above milk samples collected from each of the cows, the milk composition such as milk fat, proteins, casein, lactose, total solid (TS), solid not fat (SNF), milk urea nitrogen (MUN) and somatic cell count (SCC) was measured using a […] infrared spectroscopy (Milko-Scan, 133N, manufactured by Foss Electric, Hill-erod (Denmark)). Data of each cow were calculated as an average value of 4 milk samples collected for 2 days. For each group of Section A and Section B, the data average of the ALA administration periods (ALA Group A and ALA Group B) was shown under the item of ALA consumption groups, and the data average of the non-administration periods (Control Group A and Control Group B) was shown under the item of Control groups. The data were analyzed statistically as a crossover design using the mixing procedure of SPSS (PASW Statistics 18.0, manufactured by IBM). Statistical analysis of each result was carried out by mixed model and p<0.05(*) meant statistically significant difference. A tendency toward significance was considered at p<0.10.

[1] = 10 mg 5-ALA per kg TMR, 14 days, milk of last 2 days, ± standard error
[2] = 10 mg 5-ALA per kg TMR, 14 days, milk of last 2 days, ± standard error, p<0.05 vs control
[3] = feed to which 5-ALA was added, p<0.05

`NCC(=O)CCC(=O)O` [5-ALA, 5-aminolevulinic acid] was tested, and the Milk yield (10 mg 5-ALA per kg TMR fed for 14 days, crossover, n=6, ± standard error) was 23.78 ± 1.67 kg/day, the “Milk composition: Fat” value [1] was 4.42 ± 0.14% and the “Milk composition: Lactose” value [1] was 4.82 ± 0.02%. For the same compound, the “Milk composition: Non-fat solid” value [1] was 9.03 ± 0.17%, the “Milk composition: Overall solid” value [1] was 13.34 ± 0.28% and the “Milk composition: Casein” value [2] was 2.71 ± 0.09 a %. For the same compound, the “Milk composition: Proteins” value [2] was 3.51 ± 0.12 a %, the “Lactose compared with Control Groups” value (feed to which 5-ALA was added) was “no particular differences” and the “Milk fat compared with Control Groups” value (feed to which 5-ALA was added) was “no particular differences”. The “Milk yield compared with Control Groups” value (feed to which 5-ALA was added) was “no particular differences”, the “Non-fat solid compared with Control Groups” value (feed to which 5-ALA was added) was “no particular differences” and the “Overall solid compared with Control Groups” value (feed to which 5-ALA was added) was “no particular differences”. The “Casein content in milk compared with Control Groups” value [3] was “increased significantly” and the “Protein content in milk compared with Control Groups” value [3] was “increased significantly”.

Source: patent US11273136B2, “Method for increasing protein content in milk of lactating cows” (neopharma Japan Co., Ltd., priority 2019, dated 2022)
